Laboratory results taken from ChEMBL document CHEMBL3286183, “Minor diterpene glycosides from the leaves of Stevia rebaudiana” (J Nat Prod, 2014).
Activity calls are given as the source filed them.

Key:
Type in all cases: functional, organism-based
Candida albicans = assay: Antimicrobial activity against Candida albicans ATCC 90028
Staphylococcus aureus = assay: Antimicrobial activity against methicillin-resistant Staphylococcus aureus ATCC 43300
Aspergillus fumigatus = assay: Antimicrobial activity against Aspergillus fumigatus ATCC 90906
Cryptococcus neoformans = assay: Antimicrobial activity against Cryptococcus neoformans ATCC 90113
Pseudomonas aeruginosa = assay: Antimicrobial activity against Pseudomonas aeruginosa ATCC 27853
[1] = test system: Mycobacterium intracellulare; assay: Antimicrobial activity against Mycobacterium intracellulare ATCC 23068
Escherichia coli = assay: Antimicrobial activity against Escherichia coli ATCC 35218
Plasmodium falciparum [2] = assay: Antimalarial activity against chloroquine-resistant Plasmodium falciparum W2
Plasmodium falciparum [3] = assay: Antimalarial activity against chloroquine-sensitive Plasmodium falciparum D6

Measured: Activity

C=C1C[C@@]23CC[C@H]4[C@@](C)(CCC[C@@]4(C)C(=O)O[C@@H]4O[C@H](CO)[C@@H](O)[C@H](O)[C@H]4O)[C@@H]2CC[C@]1(O[C@@H]1O[C@H](C)[C@@H](O)[C@H](O)[C@@H]1O[C@@H]1O[C@H](CO)[C@@H](O)[C@H](O)[C@H]1O)C3
inactive: Candida albicans | Staphylococcus aureus | Aspergillus fumigatus | Cryptococcus neoformans | Pseudomonas aeruginosa | [1] | Escherichia coli

C=C1C[C@@]23CC[C@H]4[C@@](C)(CCC[C@@]4(C)C(=O)O[C@@H]4O[C@H](CO)[C@@H](O)[C@H](O)[C@H]4O)[C@@H]2CC[C@]1(O[C@@H]1O[C@H](CO)[C@@H](O)[C@H](O)[C@H]1O[C@@H]1O[C@H](CO)[C@@H](O)[C@H](O)[C@H]1O)C3
inactive: Candida albicans | Staphylococcus aureus | Aspergillus fumigatus | Plasmodium falciparum [2] | Cryptococcus neoformans | Pseudomonas aeruginosa | [1] | Plasmodium falciparum [3] | Escherichia coli

C=C1C[C@@]23CC[C@H]4[C@@](C)(CCC[C@@]4(C)C(=O)O[C@@H]4O[C@H](CO)[C@@H](O)[C@H](O)[C@H]4O)[C@@H]2CC[C@]1(O[C@@H]1O[C@H](CO)[C@@H](O)[C@H](O)[C@H]1O[C@@H]1O[C@H](CO)[C@@H](O)[C@H](O[C@@H]2O[C@H](CO)[C@@H](O)[C@H](O)[C@H]2O)[C@H]1O)C3
inactive: Candida albicans | Staphylococcus aureus | Aspergillus fumigatus | Cryptococcus neoformans | Pseudomonas aeruginosa | [1] | Escherichia coli

C=C1C[C@@]23CC[C@H]4[C@@](C)(CCC[C@@]4(C)C(=O)O[C@@H]4O[C@H](CO)[C@@H](O)[C@H](O)[C@H]4O[C@@H]4O[C@H](CO)[C@@H](O)[C@H](O)[C@H]4O)[C@@H]2CC[C@]1(O[C@@H]1O[C@H](CO)[C@@H](O)[C@H](O[C@@H]2O[C@H](CO)[C@@H](O)[C@H](O)[C@H]2O)[C@H]1O[C@@H]1O[C@H](CO)[C@@H](O)[C@H](O)[C@H]1O)C3
inactive: Candida albicans | Staphylococcus aureus | Aspergillus fumigatus | Cryptococcus neoformans | Pseudomonas aeruginosa | [1] | Escherichia coli

C=C1C[C@@]23CC[C@H]4[C@@](C)(CCC[C@@]4(C)C(=O)O[C@@H]4O[C@H](CO)[C@@H](O)[C@H](O)[C@H]4O[C@@H]4O[C@H](CO)[C@@H](O)[C@H](O)[C@H]4O)[C@@H]2CC[C@]1(O[C@@H]1O[C@H](CO)[C@@H](O)[C@H](O)[C@H]1O)C3
inactive: Candida albicans | Staphylococcus aureus | Aspergillus fumigatus | Plasmodium falciparum [2] | Cryptococcus neoformans | Pseudomonas aeruginosa | [1] | Plasmodium falciparum [3] | Escherichia coli

C=C1C[C@@]23CC[C@H]4[C@@](C)(CCC[C@@]4(C)C(=O)O[C@@H]4O[C@H](CO)[C@@H](O)[C@H](O)[C@H]4O)[C@@H]2CC[C@]1(O[C@@H]1O[C@H](CO)[C@@H](O)[C@H](O[C@@H]2OC[C@@H](O)[C@H](O)[C@H]2O)[C@H]1O[C@@H]1O[C@H](CO)[C@@H](O)[C@H](O)[C@H]1O)C3
inactive: Candida albicans | Staphylococcus aureus | Aspergillus fumigatus | Cryptococcus neoformans | Pseudomonas aeruginosa | [1] | Escherichia coli

C=C1C[C@@]23CC[C@H]4[C@@](C)(CCC[C@@]4(C)C(=O)O)[C@@H]2CC[C@]1(O[C@@H]1O[C@@H](CO)[C@@H](O[C@@H]2O[C@@H](CO)[C@@H](O)[C@H](O)[C@@H]2O)[C@H](O)[C@@H]1O[C@@H]1O[C@@H](CO)[C@@H](O)[C@H](O)[C@@H]1O)C3
inactive: Candida albicans | Staphylococcus aureus | Aspergillus fumigatus | Cryptococcus neoformans | Pseudomonas aeruginosa | [1] | Escherichia coli

C=C1C[C@@]23CC[C@H]4[C@@](C)(CCC[C@@]4(C)C(=O)O[C@@H]4O[C@H](CO)[C@@H](O)[C@H](O)[C@H]4O)[C@@H]2CC[C@]1(O[C@@H]1O[C@H](C)[C@@H](O)[C@H](O)[C@@H]1O[C@@H]1O[C@H](CO)[C@@H](O)[C@H](O[C@@H]2O[C@H](CO)[C@@H](O)[C@H](O)[C@H]2O)[C@H]1O)C3
inactive: Candida albicans | Staphylococcus aureus | Aspergillus fumigatus | Cryptococcus neoformans | Pseudomonas aeruginosa | [1] | Escherichia coli
